Key:
[1] = target: His-tagged human recombinant kinase full-length Akt1 (Homo sapiens (Human), UniProt P31749); experiment: Akt1 kinase assay (TR-FRET); type: biochemical; conditions: 10 μM ATP; read-out: Akt1, median IC50
Description: Biological Assay 1.0: Akt1 Kinase Assay
Akt1 inhibitory activity of compounds of the present invention was quantified employing the Akt1 TR-FRET assay as described in the following paragraphs.
As substrate for the kinase reaction the biotinylated peptide biotin-Ahx-[…] (C-terminus in amide form) was used which can be purchased e.g. from the company Biosynthan GmbH (Berlin-Buch, Germany).
For the assay 50 nl of a 100 fold concentrated solution of the test compound in DMSO was pipetted into a black low volume 384 well microtiter plate (Greiner Bio-One, Frickenhausen, Germany), 2 μl of a solution of Akt1 in assay buffer [50 mM TRIS/HCl pH 7.5, 5 mM MgCl2, 1 mM dithiothreitol, 0.02% (v/v) Triton X-100 (Sigma)] were added and the mixture was incubated for 15 min at 22° C. to allow prebinding of the test compounds to the enzyme before the start of the kinase reaction. […] The concentration of Akt1 in the assay was adjusted depending of the activity of the enzyme lot and was chosen appropriate to have the assay in the linear range, typical enzyme concentrations were in the range of about 0.05 ng/μl (final conc. in the 5 μl assay volume).
The resulting mixture was incubated 1 h at 22° C. to allow the binding of the biotinylated phosphorylated peptide to the streptavidine-XL665 and the antibodies. Subsequently the amount of phosphorylated substrate was evaluated by measurement of the resonance energy transfer from the anti-mouse-IgG-Eu-Chelate to the streptavidine-XL665.

[2] = system: KPL-4 breast cancer cell line; experiment: Tumor cell proliferation assay (CellTiter-Glo, 72 h), KPL-4; type: cell-based; conditions: KPL4, 72h drug exposure
Description: Biological Assay 4.0: Tumor Cell Proliferation Assays
Compounds were tested in a cell-based assay that measures the capacity of the compounds to inhibit tumour cell proliferation following a 72h drug exposure. Cell viability is determined using CellTiter-Glow® (CTG, Promega, cat# G7571/2/3). The CellTiter-Glo® Luminescent Cell Viability Assay is a homogeneous method to determine the number of viable cells in culture. Detection is based on using the luciferase reaction to measure the amount of ATP from viable cells. The amount of ATP in cells correlates with cell viability. Within minutes after a loss of membrane integrity, cells lose the ability to synthesize ATP, and endogenous ATPases destroy any remaining ATP; thus the levels of ATP fall precipitously.
For each cell line assayed, cells were plated onto a separate plate for determination of […] at t=0 hour and t=72 hour time points. Following overnight incubation at 37° C., chemiluminescence values for the t=0 samples were determined after adding 10 μl medium and 100 μl CTG solution according to manufacture protocol. Plates for the t=72 hour time points were treated with compounds diluted into growth medium at ten times final concentration added in 10 μL to the cell culture plate. Cells were then incubated for 72 hours at 37° C. Chemiluminescence values for the t=72 hour samples were determined. […] Experiments were controlled using a reference compound as standard.

[3] = system: p-AKT1/2/3-S473 in KPL4 breast tumour cell line; experiment: Cellular p-AKT1/2/3-S473 assay; type: cell-based; conditions: KPL4 breast tumour cell line, 2 hours treatment; read-out: pAKT-S743 median IC50
Description: The molecular mechanism of action was investigated in a set of experiments to assess the inhibition of the PI3K-AKT-mTOR pathway in responsive cell lines such as KPL4 breast tumour cell line (PIK3CAH1047R, HER20/E and hormone independent). The phospho-substrates of PI3K-AKT-mTOR axis were used as the read-outs to reflect pathway inhibition. Cells were seeded at 60-80% confluency per well in 96-well cell culture plates. After overnight incubation at 37° C. 5% CO2, cells were treated with compounds and vehicle at 37° C. for 2 hours. […] All measurements where at least done in duplicates and confirmed by independent repetition.
Alternatively pAKT-S473 was measured using the “Akt Duplex” of the MULTI-SPOT® Assay System (Fa. Meso Scale Discovery, Cat# N41100B-1) following manufacturers instructions. Each assay used 20 μg of protein extract and measured total AKT and p-AKT content simultaneously in one well. All measurements where at least done in duplicates and confirmed by independent repetition. Values for P-AKT are expressed as percentage of P-AKT level compared to total-AKT content of the extracts.

Chain of His-tagged human recombinant kinase full-length Akt1 (P31749 whole entry): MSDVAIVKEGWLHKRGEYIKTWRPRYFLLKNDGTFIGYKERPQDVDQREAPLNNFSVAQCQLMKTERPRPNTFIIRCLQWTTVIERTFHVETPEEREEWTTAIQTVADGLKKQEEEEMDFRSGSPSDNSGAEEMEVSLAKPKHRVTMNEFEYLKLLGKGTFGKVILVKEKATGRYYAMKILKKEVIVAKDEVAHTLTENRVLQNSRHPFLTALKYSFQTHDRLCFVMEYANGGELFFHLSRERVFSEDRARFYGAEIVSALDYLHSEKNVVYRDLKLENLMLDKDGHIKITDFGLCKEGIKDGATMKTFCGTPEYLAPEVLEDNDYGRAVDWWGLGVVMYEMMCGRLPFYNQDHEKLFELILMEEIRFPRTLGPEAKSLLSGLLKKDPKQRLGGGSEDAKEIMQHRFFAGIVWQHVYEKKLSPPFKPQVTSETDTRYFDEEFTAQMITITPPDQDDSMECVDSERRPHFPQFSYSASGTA

IC50 [1] [nM] | IC50 [2] [nM] | IC50 [3] [nM] | SMILES
348 | 1500 |  | NC1(c2ccc(-c3nc4ncccn4c3-c3ccccc3)cc2)CCC1 [Example 1-0, 1-[4-(3-phenyl-imidazo[1,2-a]pyrimidin-2-yl)-phenyl]-cyclobutylamine]
 | 2000 |  | Cc1ccn2c(-c3ccccc3)c(-c3ccc(C4(N)CCC4)cc3)nc2n1 [Example 1-1]
 | 1800 |  | NC1(c2ccc(-c3nc4nc(C5CC5)ccn4c3-c3ccccc3)cc2)CCC1 [Example 1-2]
 | 1000 |  | Cc1cnc2nc(-c3ccc(C4(N)CCC4)cc3)c(-c3ccccc3)n2c1 [Example 1-6]
 | 1000 | 38 | COc1cnc2nc(-c3ccc(C4(N)CCC4)cc3)c(-c3ccccc3)n2c1 [Example 1-7]
 | 2300 |  | CCOc1cnc2nc(-c3ccc(C4(N)CCC4)cc3)c(-c3ccccc3)n2c1 [Example 1-8]
102 | 1500 | 37 | NC1(c2ccc(-c3nc4cc(-n5cccn5)ccn4c3-c3ccccc3)cc2)CCC1 [Example 1-11]
588 | 9800 | 1170 | CNC(=O)Nc1ccn2c(-c3ccccc3)c(-c3ccc(C4(N)CCC4)cc3)nc2c1 [Example 1-14]
544 | 5400 |  | NC1(c2ccc(-c3nc4nc(O)ccn4c3-c3ccccc3)cc2)CCC1 [Example 2-1]
 | 1700 | 250 | CCCOc1ccn2c(-c3ccccc3)c(-c3ccc(C4(N)CCC4)cc3)nc2n1 [Example 2-2]
 | 2400 | 32 | N#Cc1cccn2c(-c3ccccc3)c(-c3ccc(C4(N)CCC4)cc3)nc12 [Example 2-3]
829 | 2000 | 292 | Cc1ccn2c(-c3ccccc3)c(-c3ccc(C4(N)CCC4)cc3)nc2c1 [Example 2-4]
100 | 4300 | 209 | Cc1cccn2c(-c3ccccc3)c(-c3ccc(C4(N)CCC4)cc3)nc12 [Example 2-5]
145 | 1600 | 333 | N#Cc1ccn2c(-c3ccccc3)c(-c3ccc(C4(N)CCC4)cc3)nc2c1 [Example 2-6]
96 | 1800 | 237 | COc1ccn2c(-c3ccccc3)c(-c3ccc(C4(N)CCC4)cc3)nc2c1 [Example 2-8]
 | 900 | 62 | CNC(=O)c1ccc2nc(-c3ccc(C4(N)CCC4)cc3)c(-c3ccccc3)n2c1 [Example 2-9]
 | 1900 | 428 | COCc1ccc2nc(-c3ccc(C4(N)CCC4)cc3)c(-c3ccccc3)n2c1 [Example 2-10]
 | 1300 | 159 | COc1cccn2c(-c3ccccc3)c(-c3ccc(C4(N)CCC4)cc3)nc12 [Example 2-12]
 | 2200 | 758 | CC(O)c1ccc2nc(-c3ccc(C4(N)CCC4)cc3)c(-c3ccccc3)n2c1 (centres unmarked) [Example 2-13]
 | 3000 | 510 | NC1(c2ccc(-c3nc4cc(CO)ccn4c3-c3ccccc3)cc2)CCC1 [Example 2-14]
 | 3200 | 163 | NC1(c2ccc(-c3nc4c(CO)cccn4c3-c3ccccc3)cc2)CCC1 [Example 2-15]
36 | 1500 | 35 | COc1ccc2nc(-c3ccc(C4(N)CCC4)cc3)c(-c3ccccc3)n2c1 [Example 2-17]
 | 1600 | 93 | CCOc1cccn2c(-c3ccccc3)c(-c3ccc(C4(N)CCC4)cc3)nc12 [Example 2-19]

IC50 [1] [nM] | IC50 [2] [nM] | IC50 [3] [nM] | SMILES
188 | 1500 | 142 | NC1(c2ccc(-c3nc4cc(-c5cn[nH]c5)ccn4c3-c3ccccc3)cc2)CCC1 [Example 2-22]
47 | 9800 | 1010 | COC(=O)c1cccn2c(-c3ccccc3)c(-c3ccc(C4(N)CCC4)cc3)nc12 [Example 2-23]
 | 4500 | 3320 | COCCNCc1ccc2nc(-c3ccc(C4(N)CCC4)cc3)c(-c3ccccc3)n2c1 [Example 2-24]
504 | 2300 | 213 | NC1(c2ccc(-c3nc4ccc(CO)cn4c3-c3ccccc3)cc2)CCC1 [Example 2-25]
221 | 1900 | 90 | COc1ccc(COc2ccn3c(-c4ccccc4)c(-c4ccc(C5(N)CCC5)cc4)nc3n2)cn1 [Example 2-26]
1190 | 1900 | 111 | COCCOc1ccn2c(-c3ccccc3)c(-c3ccc(C4(N)CCC4)cc3)nc2n1 [Example 2-27]
179 | 1800 | 114 | COc1cc(COc2ccn3c(-c4ccccc4)c(-c4ccc(C5(N)CCC5)cc4)nc3n2)ccn1 [Example 2-28]
190 | 1800 |  | CCOc1ccn2c(-c3ccccc3)c(-c3ccc(C4(N)CCC4)cc3)nc2n1 [Example 2-29]
 | 2300 | 464 | CC(C)Oc1ccn2c(-c3ccccc3)c(-c3ccc(C4(N)CCC4)cc3)nc2n1 [Example 2-30]
 | 1900 |  | NC1(c2ccc(-c3nc4nc(OC5CCCCC5)ccn4c3-c3ccccc3)cc2)CCC1 [Example 2-31]
 | 1800 |  | NC1(c2ccc(-c3nc4nc(Oc5ccccc5)ccn4c3-c3ccccc3)cc2)CCC1 [Example 2-32]
379 | 1000 | 187 | CCc1cnc2nc(-c3ccc(C4(N)CCC4)cc3)c(-c3ccccc3)n2c1 [Example 2-33]
 | 10000 | 1020 | COC(=O)c1ccc2nc(-c3ccc(C4(N)CCC4)cc3)c(-c3ccccc3)n2c1 [Example 2-36]
 | 1600 | 32 | NC1(c2ccc(-c3nc4c(Br)cccn4c3-c3ccccc3)cc2)CCC1 [Example 2-39]
 | 1900 | 237 | NC1(c2ccc(-c3nc4cc(Br)ccn4c3-c3ccccc3)cc2)CCC1 [Example 2-40]
 | 1500 | 48 | NC1(c2ccc(-c3nc4c(F)cccn4c3-c3ccccc3)cc2)CCC1 [Example 2-44]
 | 1800 | 28 | NC1(c2ccc(-c3nc4c(Cl)cccn4c3-c3ccccc3)cc2)CCC1 [Example 2-45]
 | 1800 | 59 | NC1(c2ccc(-c3nc4ccc(F)cn4c3-c3ccccc3)cc2)CCC1 [Example 2-46]
 | 8700 | 303 | C=Cc1cccn2c(-c3ccccc3)c(-c3ccc(C4(N)CCC4)cc3)nc12 [Example 2-49]
 | 1800 | 140 | NC1(c2ccc(-c3nc4cc(-c5ccccn5)ccn4c3-c3ccccc3)cc2)CCC1 [Example 2-111]
 | 2300 | 101 | NC(=O)/C=C/c1ccn2c(-c3ccccc3)c(-c3ccc(C4(N)CCC4)cc3)nc2c1 [Example 2-124]
 | 1700 | 40 | NC1(c2ccc(-c3nc4ccc(-c5cn[nH]c5)cn4c3-c3ccccc3)cc2)CCC1 [Example 2-132]
384 |  |  | N[C@]1(c2ccc(-c3nc4nc(O)ccn4c3-c3ccccc3)cc2)C[C@H](O)C1 [Example 3-0, 2-[4-(cis-1-amino-3-hydroxy-cyclobutyl)-phenyl]-3-phenyl-imidazo[1,2-a]pyrimidin-7-ol]

SMILES | IC50 [1] [nM] | IC50 [2] [nM] | IC50 [3] [nM]
NC1(c2ccc(-c3nc4ccc(Br)cn4c3-c3ccccc3)cc2)CCC1 [Example 2-16] |  | 1900 | 477
